“And” between values parts separate entries of the source, which are not always exact repeats. Equal values may be shown once. Inconclusive results and toxic doses are left out. Rule as the data show it: active = T/C of 150% or more; inactive = T/C below 125%.
Test system: L1210 leukemia ip in BDF1 mice, survival T/C
Test: NCI In Vivo Anticancer Drug Screen. Data for tumor model L1210 Leukemia (intraperitoneal) in B6D2F1 (BDF1) mice
Conditions: endpoint: mean survival time, higher = longer survival
In short: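 Value reflects the ratio of survival in compound-treated mice to survival in vehicle-treated controls, with both groups carrying the same transplanted tumor.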

[1] = dose: 50.0 mg/kg/injection, schedule: Q01DX001 (ip), vehicle: saline
[2] = dose: 50.0 mg/kg/injection, schedule: Q01DX009 (ip), vehicle: saline
[3] = dose: 100.0 mg/kg/injection, schedule: Q01DX001 (ip), vehicle: saline
[4] = dose: 100.0 mg/kg/injection, schedule: Q01DX009 (ip), vehicle: saline
[5] = dose: 100.0 mg/kg/injection, schedule: Q04DX002 (ip), vehicle: saline
[6] = dose: 100.0 mg/kg/injection, schedule: Q04DX003 (ip), vehicle: saline
[7] = dose: 200.0 mg/kg/injection, schedule: Q01DX001 (ip), vehicle: saline
[8] = dose: 200.0 mg/kg/injection, schedule: Q01DX009 (ip), vehicle: saline
[9] = dose: 200.0 mg/kg/injection, schedule: Q04DX002 (ip), vehicle: saline
[10] = dose: 200.0 mg/kg/injection, schedule: Q04DX003 (ip), vehicle: saline
[11] = dose: 100.0 mg/kg/injection, schedule: Q01DX009 (ip), vehicle: Klucel (hydroxypropylcellulose) (HPC)
[12] = dose: 100.0 mg/kg/injection, schedule: Q04DX003 (ip), vehicle: Klucel (hydroxypropylcellulose) (HPC)
[13] = dose: 200.0 mg/kg/injection, schedule: Q01DX009 (ip), vehicle: Klucel (hydroxypropylcellulose) (HPC)
[14] = dose: 200.0 mg/kg/injection, schedule: Q04DX003 (ip), vehicle: Klucel (hydroxypropylcellulose) (HPC)
[15] = dose: 400.0 mg/kg/injection, schedule: Q04DX003 (ip), vehicle: Klucel (hydroxypropylcellulose) (HPC)
[16] = dose: 100.0 mg/kg/injection, schedule: Q04DX003 (ip), vehicle: saline with Tween-80
[17] = dose: 200.0 mg/kg/injection, schedule: Q04DX003 (ip), vehicle: saline with Tween-80
[18] = dose: 400.0 mg/kg/injection, schedule: Q01DX009 (ip), vehicle: Klucel (hydroxypropylcellulose) (HPC)
[19] = dose: 100.0 mg/kg/injection, schedule: Q01DX001 (ip), vehicle: carboxymethylcellulose (CMC)
[20] = dose: 200.0 mg/kg/injection, schedule: Q01DX001 (ip), vehicle: carboxymethylcellulose (CMC)
[21] = dose: 400.0 mg/kg/injection, schedule: Q01DX001 (ip), vehicle: carboxymethylcellulose (CMC)
[22] = dose: 400.0 mg/kg/injection, schedule: Q04DX003 (ip), vehicle: saline with Tween-80
[23] = dose: 100.0 mg/kg/injection, schedule: Q01DX009 (ip), vehicle: saline with Tween-80
[24] = dose: 200.0 mg/kg/injection, schedule: Q01DX009 (ip), vehicle: saline with Tween-80
[25] = dose: 400.0 mg/kg/injection, schedule: Q01DX009 (ip), vehicle: saline with Tween-80

Measured: T/C

C[n+]1ccccc1C=O
inactive: [1] 100 % of control | [2] 102 % of control and 103 % of control | dose: 50.0 mg/kg/injection, schedule: Q04DX003 (ip), vehicle: saline 98 % of control | [3] 100 % of control | [4] 104 % of control and 113 % of control | [5] 97 % of control and 105 % of control | [6] 88 % of control | [7] 103 % of control | [8] 102 % of control and 109 % of control | [9] 102 % of control and 105 % of control | [10] 107 % of control | dose: 400.0 mg/kg/injection, schedule: Q04DX002 (ip), vehicle: saline 101 % of control

COC(=O)C[CH2][Pb]([c]1ccccc1)([c]1ccccc1)[c]1ccccc1
inactive: dose: 100.0 mg/kg/injection, schedule: Q04DX002 (ip), vehicle: saline with Tween-80 102 % of control | dose: 200.0 mg/kg/injection, schedule: Q04DX002 (ip), vehicle: saline with Tween-80 113 % of control

CC1(C)N=C1c1ccccc1
inactive: [5] 98 % of control | [9] 117 % of control

FC(F)(F)c1ccc(Cl)c(NC2=NCCCS2)c1
inactive: dose: 10.0 mg/kg/injection, schedule: Q01DX009 (ip), vehicle: saline 107 % of control | dose: 20.0 mg/kg/injection, schedule: Q01DX009 (ip), vehicle: saline 97 % of control | dose: 40.0 mg/kg/injection, schedule: Q01DX009 (ip), vehicle: saline 96 % of control | dose: 75.0 mg/kg/injection, schedule: Q01DX009 (ip), vehicle: saline 95 % of control | [11] 96 % of control | [12] 97 % of control | [13] 97 % of control | [14] 95 % of control | [15] 94 % of control

CCCCCCCCCCCC(C)NCc1ccccc1 (configuration not stated)
inactive: dose: 6.25 mg/kg/injection, schedule: Q01DX009 (ip), vehicle: saline with Tween-80 89 % of control | dose: 12.5 mg/kg/injection, schedule: Q01DX009 (ip), vehicle: saline with Tween-80 89 % of control | dose: 25.0 mg/kg/injection, schedule: Q01DX009 (ip), vehicle: saline with Tween-80 97 % of control | dose: 25.0 mg/kg/injection, schedule: Q04DX003 (ip), vehicle: saline 94 % of control | dose: 35.0 mg/kg/injection, schedule: Q01DX009 (ip), vehicle: acetone 92 % of control

Cc1cc(CC(C)C)c(C(N)=O)cc1C
inactive: dose: 100.0 mg/kg/injection, schedule: Q01DX001 (ip), vehicle: other 108 % of control | dose: 200.0 mg/kg/injection, schedule: Q01DX001 (ip), vehicle: other 105 % of control | dose: 400.0 mg/kg/injection, schedule: Q01DX001 (ip), vehicle: other 103 % of control

CCCC(=O)OC1=CC(=O)c2ccccc2C1=O
inactive: dose: 75.0 mg/kg/injection, schedule: Q01DX001 (ip), vehicle: other 94 % of control | dose: 150.0 mg/kg/injection, schedule: Q01DX001 (ip), vehicle: other 89 % of control

O=C(O)C1CC2c3ccccc3C1c1ccccc12 (configuration not stated)
inactive: dose: 25.0 mg/kg/injection, schedule: Q01DX009 (ip), vehicle: Klucel (hydroxypropylcellulose) (HPC) 90 % of control | dose: 50.0 mg/kg/injection, schedule: Q01DX009 (ip), vehicle: Klucel (hydroxypropylcellulose) (HPC) 97 % of control | [11] 104 % of control | [12] 90 % of control

O=C1CC2(O)CCC1(c1ccccc1)CC2
inactive: dose: 75.0 mg/kg/injection, schedule: Q04DX002 (ip), vehicle: Klucel (hydroxypropylcellulose) (HPC) 92 % of control | dose: 150.0 mg/kg/injection, schedule: Q04DX002 (ip), vehicle: Klucel (hydroxypropylcellulose) (HPC) 100 % of control | dose: 300.0 mg/kg/injection, schedule: Q04DX002 (ip), vehicle: Klucel (hydroxypropylcellulose) (HPC) 95 % of control

COc1ccc(C(CC(=O)c2ccccc2)SCCN2CCOCC2)cc1 (configuration not stated)
inactive: [16] 95 % of control | [17] 99 % of control

ClC(Cl)(Cl)C1NCCO1 (configuration not stated)
inactive: [11] 96 % of control | [12] 102 % of control | [13] 97 % of control | [14] 94 % of control | [18] 89 % of control | [15] 94 % of control

Cc1cc(NC(=O)Nc2ccc(Cl)cc2)no1
inactive: dose: 100.0 mg/kg/injection, schedule: Q04DX003 (ip), vehicle: saline sonified 95 % of control | dose: 200.0 mg/kg/injection, schedule: Q04DX003 (ip), vehicle: saline sonified 87 % of control | dose: 400.0 mg/kg/injection, schedule: Q04DX003 (ip), vehicle: saline sonified 87 % of control

CCCC(CNC(=O)OCC)(CNC(=O)OCC)c1ccccc1
inactive: [19] 94 % of control | [20] 94 % of control | [21] 105 % of control

COc1cc(N2CCOCC2)ccc1[N+](=O)[O-]
inactive: [2] 105 % of control | [4] 103 % of control | [6] 102 % of control | [8] 105 % of control | [10] 103 % of control

Cc1ccc(NC(=O)Nc2ccc(Cl)c(Cl)c2)c(C)c1
inactive: [11] 90 % of control | [12] 89 % of control | [13] 90 % of control | [14] 89 % of control | [15] 89 % of control

O=[N+]([O-])c1cnc(/C=C/c2ccccc2)nc1
inactive: [19] 97 % of control | [20] 95 % of control | [21] 89 % of control

O=C1OCCC12CCCCC21OCCO1 (configuration not stated)
inactive: [3] 101 % of control | [7] 104 % of control | dose: 400.0 mg/kg/injection, schedule: Q01DX001 (ip), vehicle: saline 98 % of control

O=C1c2ccccc2C(=O)N1c1ccc([N+](=O)[O-])cc1
inactive: dose: 100.0 mg/kg/injection, schedule: Q01DX001 (ip), vehicle: Klucel (hydroxypropylcellulose) (HPC) 103 % of control | dose: 200.0 mg/kg/injection, schedule: Q01DX001 (ip), vehicle: Klucel (hydroxypropylcellulose) (HPC) 97 % of control | dose: 400.0 mg/kg/injection, schedule: Q01DX001 (ip), vehicle: Klucel (hydroxypropylcellulose) (HPC) 103 % of control

CCOC(=O)C(Nc1ccccc1)C(=O)OCC
inactive: [16] 92 % of control | [17] 97 % of control | [22] 100 % of control

CCOC(=O)/C(C#N)=C\c1ccc(N(C)CCC#N)cc1
inactive: [11] 100 % of control | [13] 96 % of control | [18] 94 % of control

C=C(Cl)CN(CCCC(=O)O)c1cccc(OC)c1
inactive: [23] 89 % of control | dose: 100.0 mg/kg/injection, schedule: Q04DX003 (ip), vehicle: other 100 % of control | [24] 95 % of control | dose: 200.0 mg/kg/injection, schedule: Q04DX003 (ip), vehicle: other 98 % of control | [25] 97 % of control | dose: 400.0 mg/kg/injection, schedule: Q04DX003 (ip), vehicle: other 100 % of control

Cn1c(=O)c2[nH]c(C3CCCCCC3)nc2n(C)c1=O
inactive: [1] 87 % of control | [3] 96 % of control | [7] 87 % of control

CC(C)N(CCO)CC1C(c2ccccc2)C1c1ccccc1 (configuration not stated)
inactive: dose: 25.0 mg/kg/injection, schedule: Q04DX002 (ip), vehicle: Klucel (hydroxypropylcellulose) (HPC) 97 % of control | dose: 50.0 mg/kg/injection, schedule: Q04DX002 (ip), vehicle: Klucel (hydroxypropylcellulose) (HPC) 100 % of control | dose: 100.0 mg/kg/injection, schedule: Q04DX002 (ip), vehicle: Klucel (hydroxypropylcellulose) (HPC) 97 % of control

O=C1Cc2cccc3c2C(C1)CN3C(=O)c1ccccc1 (configuration not stated)
inactive: [23] 90 % of control | [16] 100 % of control | [24] 88 % of control | [17] 94 % of control | [25] 97 % of control | [22] 95 % of control

CC(=O)Nc1ccc(OCCCOc2ccc([N+](=O)[O-])cc2)cc1
inactive: [12] 101 % of control | [14] 95 % of control | [15] 91 % of control

Reference: PubChem BioAssay AID248 (DTP/NCI, 2004)
